Assay results reported in patent US9572830B2, “Uridine effects on dopamine release” (MASSACHUSETTS INSTITUTE OF TECHNOLOGY, priority 2004, dated 2017).

Key:
[1] = tested on: striatum; assay: Total tissue content of DA, 5-HT and metabolites in striatum after sacrifice; type: in vivo, rat; details: UMP-fed rats vs control
Method: (§1) Retired breeder rats consumed a diet containing normal chow (Harlan Tech Lad, Madison, Wis.) supplemented with or without uridine 5′-monophosphate (UMP) (2.5%, w/w)—at a final concentration of 500 mg/kg/day, for a period of six weeks. Microdialysis was performed with cannulas implanted directly within the right corpus striatum of the control and treated rats. Cannulas were implanted on day 1, and samples were collected on days 3 and 4. Micro-dialysates (22.5 microliter, collected over 15 minutes) were assayed for dopamine (DA), 3,4-dihydroxyphenylacetic acid (DOPAC), homovanillic acid (HVA), 5-hydroxy-tryptamine (5-HT) and 5-hydroxyindoleacetic acid (5-HIAA). Real-time neurotransmitter level measurements were taken on samples drawn prior to and following depolarization of the neuron membrane via local application of […] potassium chloride (KCl) solution. Animals were then sacrificed, and striatum, hippocampus and temporal cortex were assayed for DA, DOPAC, HVA, 5HT, 5HIAA, DNA, protein and phosphatidyl choline (PC) content. DA and metabolites in dialysates and tissue samples were determined using an ESA Coulochem 11 5100A detector (E1=−175 mV; E2=+325 mV; Eguard=350 mV) with an ESA Microdialysis Cell (model 5014B, ESA, North Chelmsford, Mass.). The mobile phase (MD-TM, ESA) consisted of 75 mM NaH2PO4, 1.7 mM 1-octanesulfonic acid, 100 ?l/L Triethylamine, 25 ?M EDTA, 10% acetonitrile, pH 3.0. The flow rate was 0.4 mL/min. The column (ESA MD 150, 3×150 mm, 3 ?m, 120 Å) was kept in a 40° C. column oven. Samples were injected to HPLC by an Alltech 580 autosampler (Alltech, Deerfield, Ill.) and maintained to 4° C. with a cooling tray during analysis. Data were captured by Alltech AllChrom™ data system, and analyzed with AllChrom plus™ software. A timeline program, which could change the detection gain during sample separation and detection, was used to make it possible to get low DA and high metabolites concentration data in dialysate through one injection.

[2] = tested on: neurotransmitter release in right corpus striatum; assay: Microdialysis of right corpus striatum of UMP-fed rats before, during and after potassium depolarization; type: in vivo, rat; details: striatal microdialysate
Method: as §1, with “injection. Real-time neurotransmitter levels were assayed by measuring the faradaic current at the respective oxidation potentials with a carbon fiber electrode inserted through the cannula.” for “injection.”

[3] = striatum and striatal extracellular fluid (ECF)
[4] = UMP-fed rat vs control, before stimulation
[5] = UMP-fed rat vs control, during and after stimulation
[6] = rats fed UMP 2.5% w/w in chow (500 mg/kg/day) for six weeks, depolarization by local 100 nm KCl, vs control rat

In the case of `O=c1ccn([C@@H]2O[C@H](COP(=O)(O)O)[C@@H](O)[C@H]2O)c(=O)[nH]1` [UMP, uridine 5′-monophosphate], the “total level of 5-HT in the striatum” value ([1]; striatal tissue) is reported as “did not affect”, the “total level of DA in the striatum” value ([1]; striatal tissue) is reported as “did not affect” and the “total striatal level of 5-HIAA” value [1, 3] is reported as “slightly reduced”. For the same compound, the “total striatal level of DOPAC” value [1, 3] was “slightly reduced”, the “total striatal level of HVA” value [1, 3] was “slightly reduced” and the “total striatal levels of DA metabolites” value ([1]; summary statement) was “decreased”. The “basal level of 5-HIAA” value [2, 4] was “lower basal levels”, the “basal level of DOPAC” value [2, 4] was “lower basal levels” and the “basal level of HVA” value [2, 4] was “lower basal levels”. For the same compound, the “release of 5-HIAA on potassium stimulation” value [2, 5] was “increased, although by a smaller margin than DA and 5-HT, after but not during stimulation”, the “release of DOPAC on potassium stimulation” value [2, 5] was “increased, although by a smaller margin than DA and 5-HT, after but not during stimulation” and the “release of HVA on potassium stimulation” value [2, 5] was “increased, although by a smaller margin than DA and 5-HT, after but not during stimulation”. The “release of 5-HT during and after depolarization” value [2, 6] was “enhanced”, the “release of DA during and after depolarization” value [2, 6] was “enhanced” and the “release of DA during and after depolarization” value ([2]; rats fed UMP 2.5% w/w in chow (500 mg/kg/day) for six weeks, depolarization by local 100 nm KCl, vs control rat, listed as uridine monophosphate) was “significantly enhanced”.
